Data: US10582707B2, “Antimicrobial antibacterial and spore germination inhibiting activity from an avocado extract enriched in bioactive compounds” (priority 2010, dated 2020)
≈ marks a conversion by molar mass, not a printed value.

How the values were obtained:
[1] = system: Clostridium sporogenes (ATCC 7955) heat shocked spores; assay: microbe, parasite or virus in culture; format: cell-based; conditions: ATCC7955, isolated compounds at 0.5 mg/ml, read-out: Disc Inhibition Zone, Heat Shocked Spores
Protocol: (§1) For the antibacterial evaluations, adjusted solutions (5 μL) were transferred to sterile 6-mm diameter discs made from Whatman no. 1 filter paper, so that after solvent evaporation each disc contained 12.5 μg of solids from the enriched avocado seed extract. Experimental controls were treated under the same conditions that the extracts and included negative control discs that contained 5 μL of acetone, and for positive control discs 5 μL of a nisin solution (30 mg/ml in sterile water) were added to provide a residual concentration of 150 μg of nisin in each disc. All test discs were left for about 1-2 hr in a Biological Safety Cabinet to evaporate the solvent. Suspensions of about 0.1 optical density (at 600 nm) containing approximately 1 to 2×10^8 CFU/ml of Clostridium sporogenes (ATCC 7955) vegetative cells, isolated native spores or isolated heat shocked spores were prepared as described in official protocols of Health Canada (Food Directorate, 2010). Aliquots of the suspensions (100 μL) were transferred to Petri dishes containing 15 ml of solid medium (TPGY medium) and spread evenly with a sterile plastic rod. Four discs, each containing 12.5 μg of the test extract, and two more discs (one solvent blank and one nisin positive control) were placed each dish and incubated at 37° C. under anaerobic conditions. The diameter of the inhibition zones (cm) around the discs were measured after 36 hrs.

[2] = system: Clostridium sporogenes (ATCC 7955) vegetative cells; assay: microbe, parasite or virus in culture; format: cell-based; conditions: for zone of inhibition at 500 µg/mL: Clostridium sporogenes, ATCC7955, isolated compounds at 0.5 mg/ml, read-out: Disc Inhibition Zone, Vegetative Cells
Protocol: as §1

[3] = system: vegetative cells of Listeria monocytogenes; assay: Disc inhibition zone, Listeria monocytogenes at refrigeration and optimum temperature; format: cell-based; conditions: 0.5 mg/ml
[4] = system: Colletotrichum gloeosporioides; conditions: cited from earlier work
[5] = system: silkworm larvae Bombyx mori L.; conditions: in vivo; cited from earlier work
[6] = system: Spodoptera exigua; conditions: in vivo; cited from earlier work
[7] = system: lactating mammary gland and myocardial fibers of mice; conditions: cited from earlier work
[8] = system: heat shocked spores from C. sporogenes; assay: MIC and MBC, heat shocked spores; format: cell-based; conditions: Clostridium sporogenes, Example 11 method (Tables 6 and 10)
Protocol: In order to further characterize the antibacterial activities of the fractions with the highest activity, it was important to determine their minimum inhibitory concentration (MIC), defined as the lowest concentration of an antimicrobial that will inhibit the visible growth of a microorganism after overnight incubation. […] But in the case of heat-shocked spores, the differences between nisin and the fractions with Kd of 0.4 were less pronounced, but still presented the desired inhibitory properties against spore germination.
In general terms, MIC is defined as the lowest concentration of an antimicrobial that will inhibit the visible growth of a microorganism after overnight incubation. While the MBC is the lowest concentration of the antimicrobial that will prevent the growth of a microorganism after subculture to fresh agar media free from the antibiotic or antimicrobial agent. The pool of active the fractions was tested at concentrations ranging from 0.005 to 2.5 mg/ml and nisin was used as control.

[9] = system: S. aureus; assay: Disc inhibition zone, S. aureus vegetative cells; format: cell-based; conditions: isolated compounds at 0.5 mg/ml, Table 9; for zone of inhibition at 500 µg/mL: Staphylococcus aureus
Protocol: (§2) For the antibacterial evaluations, adjusted solutions (5 μL) were transferred to sterile 6-mm diameter discs made from Whatman no. 1 filter paper, so that after solvent evaporation each disc contained 12.5 μg of solids from the enriched avocado seed extract. […] All test discs were left for about 1-2 hr in a Biological Safety Cabinet to evaporate the solvent. Suspensions of about 0.1 optical density (at 600 nm) containing approximately 1 to 2×10^8 CFU/ml of Clostridium sporogenes (ATCC 7955) vegetative cells, isolated native spores or isolated heat shocked spores were prepared as described in official protocols of Health Canada (Food Directorate, 2010). Aliquots of the suspensions (100 μL) were transferred to Petri dishes containing 15 ml of solid medium (TPGY medium) and spread evenly with a sterile plastic rod. […] The diameter of the inhibition zones (cm) around the discs were measured after 36 hrs.
(§3) The fractions obtained from Normal phase FCPC, were then used to assess their antimicrobial activities against the growth of vegetative cells from S. aureus and B. subtilis.
(§4) In this example, the antimicrobial activities of the same isolated compounds described in Example 10 (Table 5) were tested against the growth of vegetative cells and heat shocked spores of C. sporogenes, and on vegetative cells of S. aureus, P. aeuroginosa, E. coli. and B. subtilis as previously described in Example 1, and at a concentration of 0.5 mg/ml.

[10] = system: B. subtilis; assay: Disc inhibition zone, B. subtilis vegetative cells; format: cell-based; conditions: Bacillus subtilis, isolated compounds at 0.5 mg/ml, Table 9, read-out: Disc inhibition zone, B. Subtillis
Protocol: as §2, §3, §4

[11] = system: P. aeuroginosa; assay: Disc inhibition zone, P. aeuroginosa vegetative cells; format: cell-based; conditions: isolated compounds at 0.5 mg/ml, Table 9
Protocol: as §1
(§5) In this example, the antimicrobial activities of the same isolated compounds described in Example 10 (Table 5) were tested against the growth of vegetative cells and heat shocked spores of C. sporogenes, and on vegetative cells of S. aureus, P. aeuroginosa, E. coli. and B. subtilis as previously described in Example 1, and at a concentration of 0.5 mg/ml. […] Since it has been reported that persin is able to inhibit fungi spore germination (Prusky et al., 1982), and in the present experiment it seems to have the lowest activity, it can be assumed that the other bioactive compound would have a higher activity against fungi spore.

[12] = system: E. coli; assay: Disc inhibition zone, E. coli vegetative cells; format: cell-based; conditions: isolated compounds at 0.5 mg/ml, Table 9; for zone of inhibition at 500 µg/mL: Escherichia coli
Protocol: as §1, §5

SMILES | zone of inhibition at 500 µg/mL [1] [mm] | zone of inhibition at 500 µg/mL [2] [mm] | zone of inhibition at 500 µg/mL ([3]; 37° C, 48 hours) [mm] | zone of inhibition at 500 µg/mL ([3]; 480 h, 4° C., 20 days) [mm] | bioactivity fold lower than that of persin [4] [fold] | antimicrobial activity reduced compared with persenone A ([2]; lack of C5-C6 double bond, 0.5 mg/ml) [%] | concentration inhibiting fungi spore germination completely [4] [µg/mL] | concentration in the artificial diet inhibiting larval feeding [5] [µg/g] | concentration of diet with inhibitory effects on feeding [6] [µg/g] | concentration of diet with inhibitory effects on larval growth [6] [µg/g] | dose rate inducing lactating mammary gland necrosis [7] [mg/kg] | doses at which necrosis of myocardial fibers may occur [7] | MIC [8] [µg/mL] | zone of inhibition at 500 µg/mL [9] [mm] | Disc inhibition zone, S. aureus [9] | zone of inhibition at 500 µg/mL [10] [mm] | Disc inhibition zone, P. aeuroginosa [11] | zone of inhibition at 500 µg/mL [11] [mm] | zone of inhibition at 500 µg/mL [12] [mm] | Disc inhibition zone, E. coli [12]
C=CCCCCCCCCCCC[C@H](O)C[C@H](O)COC(C)=O [Compound 3, (2S, 4S)-1-acetoxy-2,4-dihydroxy-n-heptadeca-16-ene] | 10 | 11 | 0 | 0 | 3 | – | – | – | – | – | – | – | – | – | – | – | – | – | – | –
CCCCC/C=C\C/C=C\CCCCCCCC(=O)C[C@@H](O)COC(C)=O [Compound 9B, (R, 12Z, 15Z)-1-acetoxy-2-hydroxy-4-oxo-heneicosa-12,15-diene] | 6 | 10 | 0 | 0 | – | 37.5 | 790 | ≥ 200 | 400 | 200 | 60 to 100 | above 100 mg/kg | – | – | – | – | – | – | – | –
CCCCCCCCCCCCC/C=C/C(=O)C[C@@H](O)COC(C)=O [Compound 9A, (5E)-1-acetoxy-2-hydroxy-5-nonadecen-4-one] | 17 | 19 | 0 | 10 | – | – | – | – | – | – | – | – | 7.8 (≈ 22 µM) | 0 | did not show inhibitory activity | 0 | did not show inhibitory activity | 0 | 0 | did not show inhibitory activity
CCCCC/C=C\C/C=C\CCCCC/C=C/C(=O)C[C@@H](O)COC(C)=O (single isomer, unassigned) [Compound 7] | 15 | 16 | 0 | 11 | – | – | – | – | – | – | – | – | 7.8 (≈ 20.6 µM) | 0 | did not show inhibitory activity | 7 | did not show inhibitory activity | 0 | 0 | did not show inhibitory activity
C=C/C=C/CCCCCCCCCCCC(=O)C[C@@H](O)COC(C)=O [Compound 5, (2R, 16E)-1-acetoxy-2-hydroxy-4-oxo-nonadeca-16,18-diene] | 11 | 10 | 0 | 0 | – | – | – | – | – | – | – | – | – | – | – | – | – | – | – | –
CC/C=C/CCCCCCCCC/C=C/C(=O)C[C@@H](O)COC(C)=O (single isomer, unassigned) [Compound 6] | 17 | 19 | 0 | 11 | – | – | – | – | – | – | – | – | 15.6 (≈ 44.3 µM) | 0 | did not show inhibitory activity | 13 | did not show inhibitory activity | 0 | 0 | did not show inhibitory activity
